Reference: ChEMBL document CHEMBL1141672, “Novel bradykinin-1 antagonists containing a (1,2,3,4-tetrahydro-isoquinolin-1-yl)acetic acid scaffold” (Eur J Med Chem, 2008)
pKi: −log10 of the molar value.

These compounds were tested against T1, B1 bradykinin receptor (Homo sapiens) (UniProt P46663) (assay: Antagonist activity against human recombinant bradykinin B1 receptor expressed in CHO cells assessed as inhibition of [Lys-des-Arg9]bradykinin-induced cytoplasmic calcium release at 5 uM by fluorimetry).
T1 sequence (whole entry): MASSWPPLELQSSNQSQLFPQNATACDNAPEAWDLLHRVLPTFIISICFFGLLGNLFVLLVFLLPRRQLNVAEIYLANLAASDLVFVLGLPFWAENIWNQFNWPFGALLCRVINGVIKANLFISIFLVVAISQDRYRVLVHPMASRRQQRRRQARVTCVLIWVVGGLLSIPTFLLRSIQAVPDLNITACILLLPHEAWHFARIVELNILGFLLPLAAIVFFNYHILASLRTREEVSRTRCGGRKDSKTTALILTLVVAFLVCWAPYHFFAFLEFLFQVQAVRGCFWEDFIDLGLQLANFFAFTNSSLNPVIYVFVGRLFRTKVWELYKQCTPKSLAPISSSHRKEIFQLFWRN
Format: functional, cell-based

| SMILES | inhibition [%] |
| --- | --- |
| COc1cc2c(cc1OC)C(CC(=O)NCCc1ccc(C3=NCCN3)cc1)N(S(=O)(=O)c1ccc(C)cc1)CC2 (racemic) | 85.7 |
| Cc1ccc(S(=O)(=O)N2CCc3ccccc3C2CC(=O)NCCc2ccc(C3=NCCN3)cc2)cc1 (racemic) | 99 |
| Cc1ccc(S(=O)(=O)N2CCc3ccccc3C2CC(=O)NCCCCCCN)cc1 (racemic) | 16.3 |
| Cc1ccc(S(=O)(=O)N2CCc3ccccc3C2CC(=O)NCCCCN)cc1 (racemic) | 15.9 |
| Cc1ccc(S(=O)(=O)N2CCc3ccccc3C2CC(=O)NCCCCNC(=N)N)cc1 (racemic) | 44.9 |

Other lines, results leading:

| inhibition [%] | SMILES |
| --- | --- |
| 9.3 | COc1cc2c(cc1OC)C(CC(=O)NC1CCCCCC1)N(S(=O)(=O)c1ccc(C)cc1)CC2 (racemic) |
| 10.9 | COc1cc2c(cc1OC)C(CC(=O)NCCCCCCN)N(S(=O)(=O)c1ccc(C)cc1)CC2 (racemic) |
| 15.3 | COc1cc2c(cc1OC)C(CC(=O)NCCCCN)N(S(=O)(=O)c1ccc(C)cc1)CC2 (racemic) |
| 19 | COc1cc2c(cc1OC)C(CC(=O)NCCCCNC(=N)N)N(S(=O)(=O)c1ccc(C)cc1)CC2 (racemic) |
| 37 | Cc1ccc(S(=O)(=O)N2CCc3ccccc3C2CC(=O)NC2CCCCCC2)cc1 (racemic) |

The compounds below were run against T2, B1 bradykinin receptor (Homo sapiens, UniProt P46663) (assay: Displacement of [3H]Lys-bradykinin from human recombinant bradykinin B1 receptor expressed in CHO cells by scintillation counting).
T2 sequence (P46663 whole entry): T1 sequence (whole entry)
Format: cell-based

| pKi | SMILES |
| --- | --- |
| 5.70 | COc1cc2c(cc1OC)C(CC(=O)NCCc1ccc(C3=NCCN3)cc1)N(S(=O)(=O)c1ccc(C)cc1)CC2 (racemic) |
| 7.17 | Cc1ccc(S(=O)(=O)N2CCc3ccccc3C2CC(=O)NCCc2ccc(C3=NCCN3)cc2)cc1 (racemic) |
